Measurements from patent US10392412B2, “Platinum anticancer agents” (THE REGENTS OF THE UNIVERSITY OF CALIFORNIA, priority 2015, dated 2019).
Entries after “also recorded” stand apart in the source; their conditions may differ. Where two headings read alike, the source gives them in different places. Marks after values point to notes of the source that are not given here.

Tests used:
SNF539 cells = experiment: Cytotoxicity CellTiter-Glo; type: cell-based, human
SNB75 cells = experiment: Cytotoxicity CellTiter-Glo; type: cell-based, human
U87MG cells = experiment: Cytotoxicity CellTiter-Glo; type: cell-based, human
U251 cells = experiment: Cytotoxicity CellTiter-Glo; type: cell-based, human
T98G cells = experiment: Cytotoxicity CellTiter-Glo; type: cell-based, human
MG-63 cells = experiment: Cytotoxicity CellTiter-Glo; type: cell-based, human; conditions: MG-63, Osteosarcoma
SAOS-2 cells = experiment: Cytotoxicity CellTiter-Glo; type: cell-based, human; conditions: SAOS-2, Osteosarcoma
U-2 OS cells = experiment: Cytotoxicity CellTiter-Glo; type: cell-based, human
A204 cells = experiment: Cytotoxicity CellTiter-Glo; type: cell-based, human; conditions: A204, Rhabdomyosarcoma
A673 cells = experiment: Cytotoxicity CellTiter-Glo; type: cell-based, human
RMS13 cells = experiment: Cytotoxicity CellTiter-Glo; type: cell-based, human; conditions: RMS13, Rhabdomyosarcoma
Kelly cells = experiment: Cytotoxicity CellTiter-Glo; type: cell-based, human
SHEP cells = experiment: Cytotoxicity CellTiter-Glo; type: cell-based, human
SH-SY5Y cells = experiment: Cytotoxicity CellTiter-Glo; type: cell-based, human
AsPC1 cells = experiment: Cytotoxicity CellTiter-Glo; type: cell-based, human; conditions: read-out: IC50 (50% growth inhibition); AsPC1, Pancreas; 72 hours
Description: (§1) Human cancer cell lines were purchased from UCSF Cell Culture Facility (CCF) or obtained through Material Transfer.
(§2) The range of platinum concentrations used in the studies are 5 μM-100 μM. After 72 hours of treatment, the medium were removed and replaced with 50 μL of the media plus 50 μL of the CellTiterGlo reagent. The number of viable cells in culture will be determined based on quantitation of the ATP present, which is an indicator of the number of active cells. Concentration response graphs were generated for each compound using GraphPad Prism software. The graphs were analyzed using a curve fit for sigmoid dose-response, and IC50 values were derived. The results were expressed as mean IC50 values with the standard error of the mean.

DU145 cells = experiment: Cytotoxicity CellTiter-Glo; type: cell-based, human; conditions: read-out: IC50 (50% growth inhibition); DU145, Prostate; 72 hours
Description: as §1, §2

H226 cells = experiment: Cytotoxicity CellTiter-Glo; type: cell-based, human; conditions: read-out: IC50 (50% growth inhibition); H226, Non-small cell squamous; 72 hours
Description: as §1, §2

HCT116 cells = experiment: Cytotoxicity CellTiter-Glo; type: cell-based, human; conditions: read-out: IC50 (50% growth inhibition); HCT116, Colon; 72 hours
Description: as §1, §2

HT29 cells = experiment: Cytotoxicity CellTiter-Glo; type: cell-based, human; conditions: read-out: IC50 (50% growth inhibition); HT29, Colon; 72 hours
Description: as §1, §2

PC3 cells = experiment: Cytotoxicity CellTiter-Glo; type: cell-based, human; conditions: read-out: IC50 (50% growth inhibition); PC3, Prostate; 72 hours
Description: as §1, §2

A2780 cells = experiment: Cytotoxicity CellTiter-Glo; type: cell-based, human; conditions: read-out: IC50 (50% growth inhibition); A2780, Ovary; 72 hours
A2780-CP cells = experiment: Cytotoxicity CellTiter-Glo; type: cell-based, human; conditions: read-out: IC50 (50% growth inhibition), Ovary, 72 hours
PE01 cells = experiment: Cytotoxicity CellTiter-Glo; type: cell-based, human; conditions: read-out: IC50 (50% growth inhibition); PE01, Ovary; 72 hours
PE04 cells = experiment: Cytotoxicity CellTiter-Glo; type: cell-based, human; conditions: read-out: IC50 (50% growth inhibition); PE04, Ovary; 72 hours
OVCAR2 cells = experiment: Cytotoxicity CellTiter-Glo; type: cell-based, human; conditions: read-out: IC50 (50% growth inhibition); OVCAR2, Ovary; 72 hours
[1] = Maximum tolerated dose study: blood chemistry test (Table 7); conditions: mouse, in vivo, iv, 5 mg/kg
Description: The mice used in MTD were given standard chow devoid of added folic acid (low folate diet) (See, Leamon C P et al., J. Pharmacol. Exp. Ther. 327: 918-925). […] Therefore we also designed a MTD study in mice treated with low folate diet. Food consumption on the day before injection (Day −1) was recorded and then it was monitored every other day. […] Blood for clinical chemistry was collected if possible. Liver, kidney and bone marrow were collected. One side of each tissue (except bone marrow) will be fixed in 4-10% formalin for future histology analysis, and the rest of tissue will be cut into pieces, snap frozen, and stored at −80° C. until analysis. Blood samples for clinical chemistry were centrifuged at 8000 rpm for 10 min at 4° C. within 1 hour of collection. Plasma was collected into 1.5 mL eppendorf tubes and stored at −80° C. until analysis. The measured parameters were alanine transaminase (ALT), aspartate transaminase (AST), alkaline phosphatase (ALP), total bilirubin, glucose, blood urea nitrogen (BUN), creatinine, and electrolytes. All experiments were housed in a virus-free, temperature controlled facility on a 12-h light-dark cycle.

[2] = test system: SK-N-DZ neuroblastoma xenografts; experiment: SK-N-DZ neuroblastoma xenograft in nu/nu mice; type: in vivo, mouse
Description: (§3) The xenograft studies were performed by subcutaneous injection of SK-N-DZ (neuroblastoma, 30×10^6 cells/animal) and RMS13 (rhabdomyosarcoma, 20×10^6 cells/animal) in right flank of the male Charles River Laboratories nu/nu mice (7-8 weeks old, weight ˜20 g). Mice were treated by intravenous tail vein injection once a week for 4 weeks. The tumor sizes and body weights were monitored twice a week. Tumor volumes were calculated according to the following formula: volume=height×[…]×length×0.5236.

[3] = test system: RMS13 rhabdomyosarcoma xenografts; experiment: RMS13 rhabdomyosarcoma xenograft in nu/nu mice; type: in vivo, mouse
Description: as §3

genomic DNA = experiment: Platinum-DNA adducts by ICP-MS in HEK293 cells; type: cell-based, human; conditions: 10 μM, 2 hours
Description: Method to quantify platinum-DNA adducts by ICP-MS has been previously described (5,6). In brief, HEK293 cells were seeded in 6-well poly-D-lysine plate (cell density=0.5×10^6 cells/well). […] After 2 hours, the cells were washed twice with cold HBBS. The platinum content associated with genomic DNA was determined as described elsewhere. Genomic DNA was isolated from the cell pellets using Genomic DNA purification kit (Promega) and the DNA-bound platinum was determined by ICP-MS, which was normalized to total DNA content (determined by absorption spectrometry at 260 nm).

[4] = read-out: IC50 (50% growth inhibition), Brain, 72 hours
[5] = read-out: IC50 (50% growth inhibition), 72 hours
[6] = read-out: IC50 (50% growth inhibition), Neuroblastoma, 72 hours

Structure (SMILES): N.N.[Cl][Pt][Cl] [Cisplatin, cisplatin, reference compound]
- IC50 (SNF539 cells; read-out: IC50 (50% growth inhibition), SNF539, Brain, 72 hours): 6.5 ± 7.2 µM
- IC50 (SNB75 cells; read-out: IC50 (50% growth inhibition), SNB75, Brain, 72 hours): 15.4 ± 12.6 µM
- IC50 (U87MG cells; [4]): 16.2 ± 12.6 µM
- IC50 (U251 cells; read-out: IC50 (50% growth inhibition), U251, Brain, 72 hours): 11.2 ± 10.8 µM
- IC50 (T98G cells; [4]): 27.5 µM
- GI50 (MG-63 cells): 5.1 ± 2.3 µM
- IC50 (MG-63 cells; [5]): 5.1 ± 2.3 µM
- GI50 (SAOS-2 cells): 20.5 ± 9.9 µM
- IC50 (SAOS-2 cells; [5]): 20.5 ± 9.9 µM
- GI50 (U-2 OS cells; Osteosarcoma): 59.3 ± 9 µM
- IC50 (U-2 OS cells; read-out: IC50 (50% growth inhibition), Osteosarcoma, 72 hours): 59.3 ± 9 µM
- GI50 (A204 cells): 4.6 ± 4.4 µM
- IC50 (A204 cells; [5]): 4.6 ± 4.4 µM
- GI50 (A673 cells; A673, Ewing's sarcoma): 0.4 ± 0.3 µM
- IC50 (A673 cells; read-out: IC50 (50% growth inhibition), A673, Ewing's Sarcoma, 72 hours): 0.4 ± 0.3 µM
- GI50 (RMS13 cells): 2.5 ± 0.5 µM
- IC50 (RMS13 cells; [5]): 2.5 ± 0.5 µM
- GI50 (Kelly cells; Neuroblastoma): 7 ± 5 µM
- IC50 (Kelly cells; [6]): 7 ± 5 µM
- GI50 (SHEP cells; Neuroblastoma): 4.4 ± 2.4 µM
- IC50 (SHEP cells; [6]): 4.4 ± 2.4 µM
- GI50 (SH-SY5Y cells; Neuroblastoma): 1 ± 0.6 µM
- IC50 (SH-SY5Y cells; [6]): 1 ± 0.6 µM
- IC50 (AsPC1 cells): 2.9 ± 0.03 µM
- IC50 (DU145 cells): 0.5 ± 0.01 µM
- IC50 (H226 cells): 13.8 ± 2.8 µM
- IC50 (HCT116 cells): 2.1 ± 0.3 µM
- IC50 (HT29 cells): 2.3 ± 0.4 µM
- IC50 (PC3 cells): 2.5 ± 0.3 µM
- IC50 (A2780 cells): 1.2 ± 0.2 µM
- IC50 (A2780-CP cells): 8.6 ± 2.1 µM
- IC50 (PE01 cells): 0.6 ± 0.4 µM
- IC50 (PE04 cells): 4.9 ± 2 µM
- IC50 (OVCAR2 cells): 3.3 ± 1.6 µM
- Cl [1]: 102.33*
- tumor volume / tumor growth ([2]; SKNDZ neuroblastoma xenograft, 5 mg/kg i.v. once a week for 4 weeks): inhibited tumor growth
- survival ([2]; SKNDZ xenograft model, 5 mpk, 5 mg/kg): significant difference in survival; also recorded: increase survival rate
- tumor volume / tumor growth ([3]; RMS13 rhabdomyosarcoma xenograft, 5 mg/kg i.v. once a week for 4 weeks): inhibited tumor growth
- survival ([3]; RMS13 xenograft model, 5 mpk): increase survival rate

Structure (SMILES): CN(Cc1cnc2nc(N)nc(N)c2n1)c1ccc(C(=O)NC(CCC(=O)O)C(=O)O)cc1.[Cl][Pt][Cl] (stereo not shown) [SM-69B]
- IC50 (SNF539 cells; read-out: IC50 ± S.D. (50% growth inhibition), SF539, Brain - High grade, + 1 mM Folic Acid): 43.2 ± 12.9 µM
- IC50 (SNF539 cells; read-out: IC50 ± S.D. (50% growth inhibition), SF539, Brain - High grade, two independent experiments): 0.46 ± 0.04 µM
- IC50 (SNB75 cells; read-out: IC50 ± S.D. (50% growth inhibition), SNB75, Brain - High grade, + 1 mM Folic Acid): 63.3 ± 3.3 µM
- IC50 (SNB75 cells; read-out: IC50 ± S.D. (50% growth inhibition), SNB75, Brain - High grade, two independent experiments): 11.1 ± 2.1 µM
- IC50 (U87MG cells; read-out: IC50 ± S.D. (50% growth inhibition), Brain - Low grade, + 1 mM Folic Acid): 13.9 ± 11.1 µM
- IC50 (U87MG cells; read-out: IC50 ± S.D. (50% growth inhibition), Brain - Low grade, two independent experiments): 0.96 ± 0.09 µM
- IC50 (U251 cells; read-out: IC50 ± S.D. (50% growth inhibition), U251, Brain - High grade, + 1 mM Folic Acid): 18 ± 1.4 µM
- IC50 (U251 cells; read-out: IC50 ± S.D. (50% growth inhibition), U251, Brain - High grade, two independent experiments): 0.87 ± 0.13 µM
- IC50 (T98G cells; read-out: IC50 ± S.D. (50% growth inhibition), Brain - High grade, + 1 mM Folic Acid): 5.3 ± 1.2 µM
- IC50 (T98G cells; read-out: IC50 ± S.D. (50% growth inhibition), Brain - High grade, two independent experiments): 0.31 ± 0.05 µM
- IC50 (HeLa R1-11 (SLC19A1)): 0.109 µM
- IC50 (HeLa R1-11 (SLC46A1)): 0.702 µM

Structure (SMILES): CN(Cc1cnc2nc(N)nc(N)c2n1)c1ccc(C(=O)N[C@@H](CCC(=O)O)C(=O)O)cc1 [Methotrexate, methotrexate, reference compound]
- platinum content associated with genomic DNA (platinum-DNA adducts) (genomic DNA): did not have strong intensity (binding)
